From patent US20260347365A1, “COMPOUND FOR REGULATING AND CONTROLLING 15-PGDH ACTIVITY AND PREPARATION METHOD THEREFOR” (SCINNOHUB PHARMACEUTICAL CO.,LTD, priority 2023, published 2026) come the findings set out here.

Like-named read-outs stand apart in the source and are kept apart here.

This assay concerns the target T1, 15-PGDH (Homo sapiens, UniProt P15428).
T1 construct: purchased Sino Biological Inc. 11205-H08E
T1 sequence (P15428 1-266): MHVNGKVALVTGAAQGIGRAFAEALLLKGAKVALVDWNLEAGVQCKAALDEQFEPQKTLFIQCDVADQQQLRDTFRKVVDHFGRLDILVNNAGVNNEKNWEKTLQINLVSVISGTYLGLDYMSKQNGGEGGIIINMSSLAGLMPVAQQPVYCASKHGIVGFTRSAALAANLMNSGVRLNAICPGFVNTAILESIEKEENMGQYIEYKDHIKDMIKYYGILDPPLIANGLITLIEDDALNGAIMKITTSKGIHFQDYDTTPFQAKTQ
The assay is described as follows: Detection of Activity of 15-PGDH Kinase (inhibition of 15-PGDH enzyme). The assay is classed as biochemical. The method, then:
• a. A solution of pH 7.5 containing 50 mM Tris-HCl and 0.01% Tween 20 was prepared with ultrapure water as a reaction buffer; • b. a 10 mM mother liquor of the compound to be tested was prepared with DMSO, and then the reaction buffer was used to dilute the mother liquor of the compound to be tested to obtain solution 1 of the compound to be tested at a concentration of 4000 nM, and then the solution 1 of the compound to be tested was serially diluted into solutions 2-10 of the compound to be tested at 9 concentrations with a gradient difference of three-fold. 5 μL of each concentration of solutions 1-10 of the compound to be tested was respectively taken and added into a 384-well plate as test wells; • c. 5 μL of the reaction buffer was added to the 384-well plate as positive control and blank control wells; • d. the reaction buffer was used to prepare a 15-PGDH protein solution at a concentration of 5 ng/μL, 5 μL of the 15-PGDH protein solution was taken and added to the test wells and positive control wells, and 5 μL of the reaction buffer was added to the blank control wells at the same time, then the plate was centrifuged at 2000 rpm for 30 seconds; • e. the reaction buffer was used to prepare 5 mM β-NAD and 2 mM PGF2α, respectively, which were mixed at 1:1 by volume to obtain a substrate mixture, 10 μL of the substrate mixture was taken and added to the test wells, positive control wells and blank control wells to start the reaction; • f. the fluorescence signal value (Ex/Em=340/450) of each well was detected continuously by using a multifunctional microplate reader.
• a) Continuous fluorescence signal values were analyzed by using the “kinetic calculations-slope calculation method” in the PHERAstar Data analysis software to obtain the slope of each test well; • b) the inhibition rate % was calculated by using the following formula:
inhibition rate %=[1−(slope of test well-signal value of positive control well)/(signal value of blank control well-average signal value of positive control well)]×100%. • c) calculation of IC50 and plotting of inhibition rate-dose curves: IC50 values were calculated by fitting compound concentrations and corresponding inhibition rates with a nonlinear regression (dose response-variable slope) via using GraphPad Prism 6.0.
The formula is shown below: Y=Bottom+(Top−Bottom)/(1+10^((Log IC50−X)*HillSlope)), wherein X is a log value of a concentration of the compound, and Y is inhibition rate %.

[1] abbreviates: class symbols, substrates β-NAD and PGF2α, pH 7.5, fluorescence Ex/Em=340/450, read-out: IC50.

Take `Cn1ccc2cc(-c3nc4cc(C(=O)N5CCCCC5)ccc4c4nccn34)cnc21` [Example 62]: the IC50 under setting [1] is < 2 nM.
Same read-out and setting: with `Cn1ccc2cc(-c3nc4cc(C(=O)N5CCCCC5)ccc4n4ccnc34)cnc21` [Example 23] the figure was 2 to 5 nM.
Consider `Cc1cnc2c(-c3ccc4c(c3)CN(C)C4=O)nc3cc(C(=O)N4CCCCC4)ccc3n12` [Example 3, 2-methyl-5-(1-methyl-7-(piperidine-1-carbonyl)imidazo[1,2-a]quinoxalin-4-yl) isoindolin-1-one], for which the IC50 lay within 2 to 5 nM.
As for `CN1Cc2cc(-c3nc4cc(C(=O)N5CCCC5)ccc4n4ccnc34)ccc2C1=O` [Example 40], the IC50 under setting [1] lay within 50 to 100 nM.
Same read-out and setting: with `Cn1ncc2cc(-c3nc4cc(C(=O)N5CCCCC5)ccc4n4ccnc34)ccc21` [Example 24] the figure was 2 to 5 nM.
Still for that read-out and setting: next, `O=C(c1ccc2c(c1)nc(-c1ccc3nccn3c1)n1ccnc21)N1CCCCC1` [Example 59]: 5 to 10 nM; `Cn1cc2cc(-c3nc4cc(C(=O)N5CCCCC5)ccc4n4ccnc34)ccc2n1` [Example 21]: < 2 nM.
`Nc1ncc(-c2nc3cc(C(=O)N4CCCCC4)ccc3c3nccn23)cn1` [Example 56]: under setting [1], the IC50 is < 2 nM.
Consider `O=C(c1ccc2c(c1)nc(-c1ccc3[nH]c(=O)[nH]c3c1)c1nccn12)N1CCCCC1` [Example 29], for which the IC50 under setting [1] is < 2 nM.
With `O=C(c1ccc2c(c1)nc(-c1ccc3ncsc3c1)n1ccnc21)N1CCCCC1` [Example 54], the IC50 under setting [1] is < 2 nM.
On to `CC(C)c1nc2c3ccc(C(=O)N4CCCCC4)cc3nc(-c3ccc4c(c3)CN(C)C4=O)n2n1` [Example 78], for which the IC50 under setting [1] is 2 to 5 nM.
Take `CCOC(=O)c1cc2cc(-c3nc4cc(C(=O)N5CCCCC5)ccc4c4nccn34)ccc2[nH]1` [Example 72]: under setting [1], the concentration for half-maximal inhibition (IC50) lay within 5 to 10 nM.
Same read-out and setting: with `Cn1ccc2cc(-c3nc4cc(C(=O)N5CCCCC5)ccc4n4ccnc34)ccc2c1=O` [Example 20] the figure was < 2 nM; with `CN1Cc2cc(-c3nc4cc(C(=O)N5CCCCC5)ccc4c4ccnn34)ccc2C1=O` [Example 81], < 2 nM.
The same measure, in the same setting: next, `CCOC(=O)c1cn2cc(-c3nc4cc(C(=O)N5CCCCC5)ccc4n4ccnc34)ccc2n1` [Example 30]: 5 to 10 nM; `Cn1cc(-c2nc3cc(C(=O)N4CCCCC4)ccc3n3ccnc23)ccc1=O` [Example 18]: 10 to 20 nM.
For `CN1Cc2cc(-c3nc4ccc(C(=O)N5CCCCC5)cc4c4nccn34)ccc2C1=O` [Example 75], under setting [1], the 50% inhibitory concentration (IC50) lay within 100 to 1000 nM.
`Nc1ncc(-c2nc3cc(C(=O)N4CCCCC4)ccc3n3ccnc23)cn1` [Example 7]: the IC50 under setting [1] lay within 2 to 5 nM.
With `CN(C)c1ncc(-c2nc3cc(C(=O)N4CCCCC4)ccc3c3nccn23)cn1` [Example 52], the 50% inhibitory concentration (IC50) under setting [1] lay in the range of 5 to 10 nM.
Same read-out and setting: next, `O=C(O)c1ccc(-c2nc3cc(C(=O)N4CCCCC4)ccc3n3ccnc23)cc1` [Example 33]: < 2 nM.
As for `CN1Cc2cc(-c3nc4cc(C(=O)N5CCCCC5)ccc4c4nccn34)ccc2C1=O` [Example 46, 2-methyl-5-(8-(piperidine-1-carbonyl)imidazo[1,2-c]quinazolin-5-yl) isoindolin-1-one], the IC50 under setting [1] lay within 2 to 5 nM.
On the same count and under the same terms, next, `O=C(c1ccc2c(c1)nc(-c1ccc3ncnn3c1)c1nccn12)N1CCCCC1` [Example 27]: 5 to 10 nM; `CN1Cc2cc(-c3nc4cc(C(=O)N5CCCCC5)ccc4c4nc(C(F)(F)F)nn34)ccc2C1=O` [Example 79]: 2 to 5 nM; `Cn1cc(-c2nc3cc(C(=O)N4CCCCC4)ccc3c3nccn23)cn1` [Example 53]: 2 to 5 nM.
`CN1Cc2cc(-c3nc4cc(C(=O)N5CCCCC5)ccc4n4cnnc34)ccc2C1=O` [Example 5, 2-methyl-5-(7-(piperidine-1-carbonyl)-[1,2,4]triazolo[4,3-a]quinoxalin-4-yl) isoindolin-1-one]: the IC50 lay in the range of 5 to 10 nM.
Take `CN1Cc2cc(C3=Nc4cc(C(=O)N5CCCCC5)ccc4N4CC(C)(C)N=C34)ccc2C1=O` [Example 41]: the IC50 under setting [1] was < 2 nM.
For the molecule `N#Cc1ccc(-c2nc3cc(C(=O)N4CCCCC4)ccc3c3nccn23)cn1` [Example 50], under setting [1], the IC50 lay within 5 to 10 nM.

As a reminder, the IC50 is the point on the concentration scale where inhibition reaches its midpoint.
